Here are results for two compounds from patent publication US10548896B2, “Treatment of relapsed and/or refractory solid tumors and non-Hodgkin's lymphomas” (CELGENE QUANTICEL RESEARCH, INC., priority 2016, dated 2020).

Data set [1] relates to LXFS 573 SCLC patient-derived xenograft. Conditions: for SS (number of study survivors): Day 133, N=8.
The subject of data set [2] is NCI-H1417 SCLC xenograft. As to conditions: etoposide monotherapy 24 mg/kg SC QDx3.
The subject of data set [3] is NCI-H1417 SCLC xenograft. Put plainly: Efficacy in NCI-H1417 SCLC xenograft model. The format is in vivo, female athymic nude mice.
For data set [4], the system named is LXFS 573 SCLC patient derived xenograft. Nature of the data set: Efficacy in LXFS 573 SCLC PDX model. It is filed as in vivo, female NMRI-Foxn1nu mice. Conditions: 5 to 10 mg/kg oral.
Data set [5] deals with recombinant human CYP enzymes. Nature of the data set: CYP reaction phenotyping with recombinant human CYP enzymes. The format is in vitro ADME. The source says:
The role of non-CYP enzymes in the metabolism of Compound A is yet to be ascertained.

The nature of data set [6]: 4-week oral gavage pivotal toxicity study with 4-week recovery in dogs (incl. ECG, toxicokinetics). It is filed as in vivo, Beagle dogs. As to the method:
The QTc interval was calculated using the Fridericia method.

Data set [7] deals with ST18 and FREM2 gene expression in MS-1 tumors. Nature of the data set: In vivo xenograft dose-response of PD biomarker genes, MS-1 tumors. More on the design: species or system female NSG mice. As to conditions: 1, 2.5, or 5 mg/kg PO BID x4.5, tumors 4 hours after last dose. From the text:
(§1) Female NSG mice bearing palpable hMCC MKL-1 and MS-1 tumors were randomized into four groups of three mice each. […] The fourth group was orally administered vehicle as a control on the BID schedule. Four hours after the last dosing, tumors were collected into RNAlater and stored frozen.
(§2) Total RNA was eluted in RNase-free water and analyzed by qRT-PCR.

The nature of data set [8]: Hemodynamic and ECG parameters in anesthetized guinea pigs. It is filed as in vivo, male Dunkin Hartley guinea pigs. From the text: Animals were monitored throughout the experiment.
Data set [9] is described as follows: Excretion in bile duct cannulated rats. The format is in vivo. As to conditions: IV dosing, 24-hour period.
A short description of data set [10]: Exploratory toxicity study in dogs. Conditions: 0.5 mg/kg/day 5 days on/2 days off, Day 12.
Data set [11] is described as follows: Exploratory toxicity study in mice. It is filed as in vivo, CD-1 mice. As to conditions: for reduction in neutrophil counts versus concurrent controls: 60 mg/kg/dose QOD. From the text:
Additional animals were included for TK evaluation.

In data set [12] the target is MDR1 (human P-gp)-MDCK cells (Homo sapiens (Human), UniProt P08183). Put plainly: Permeability in MDR1-MDCK cells. It is filed as in vitro ADME. As to conditions: B→A direction.
MDR1 (human P-gp)-MDCK cells, sequence (P08183 whole entry): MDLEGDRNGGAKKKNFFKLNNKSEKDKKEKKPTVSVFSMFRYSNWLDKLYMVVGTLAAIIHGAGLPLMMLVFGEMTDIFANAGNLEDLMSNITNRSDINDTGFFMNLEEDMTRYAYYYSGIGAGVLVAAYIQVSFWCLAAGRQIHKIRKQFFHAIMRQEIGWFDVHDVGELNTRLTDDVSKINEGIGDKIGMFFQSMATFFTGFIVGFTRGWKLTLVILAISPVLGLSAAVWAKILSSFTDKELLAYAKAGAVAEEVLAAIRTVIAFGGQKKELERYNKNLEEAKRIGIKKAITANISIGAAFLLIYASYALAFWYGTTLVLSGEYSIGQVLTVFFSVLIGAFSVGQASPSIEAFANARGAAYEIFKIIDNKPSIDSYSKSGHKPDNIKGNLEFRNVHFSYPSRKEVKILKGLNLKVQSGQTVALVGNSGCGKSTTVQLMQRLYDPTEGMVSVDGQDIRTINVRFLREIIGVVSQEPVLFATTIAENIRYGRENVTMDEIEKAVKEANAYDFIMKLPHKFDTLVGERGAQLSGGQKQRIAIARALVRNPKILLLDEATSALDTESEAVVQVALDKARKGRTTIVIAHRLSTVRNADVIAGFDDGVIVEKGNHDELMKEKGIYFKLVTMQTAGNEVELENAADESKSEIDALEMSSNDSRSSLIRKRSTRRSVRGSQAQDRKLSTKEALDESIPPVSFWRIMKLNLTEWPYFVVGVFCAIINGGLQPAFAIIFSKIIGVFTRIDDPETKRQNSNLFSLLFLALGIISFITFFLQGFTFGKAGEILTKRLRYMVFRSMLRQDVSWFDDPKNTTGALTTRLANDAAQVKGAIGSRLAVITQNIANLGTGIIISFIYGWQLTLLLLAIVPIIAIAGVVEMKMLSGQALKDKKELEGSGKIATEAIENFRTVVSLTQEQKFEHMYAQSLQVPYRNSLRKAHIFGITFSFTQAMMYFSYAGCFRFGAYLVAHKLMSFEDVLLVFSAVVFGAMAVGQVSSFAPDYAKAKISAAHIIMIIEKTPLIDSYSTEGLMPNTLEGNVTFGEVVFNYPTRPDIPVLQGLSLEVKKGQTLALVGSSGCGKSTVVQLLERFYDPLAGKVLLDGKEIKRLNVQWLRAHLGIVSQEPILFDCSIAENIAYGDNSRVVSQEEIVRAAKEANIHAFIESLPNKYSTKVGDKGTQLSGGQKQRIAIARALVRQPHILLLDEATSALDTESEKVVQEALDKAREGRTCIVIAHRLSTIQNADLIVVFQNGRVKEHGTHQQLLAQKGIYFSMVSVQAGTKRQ
The next data set relates to LNCaP cells. Nature of the data set: LNCaP cell proliferation with DHT and irradiation. It is filed as cell-based, human. Conditions: 100 nM Compound A with 10 nM DHT and 2Gy irradiation, 220 hours. As to the method: LNCaP cells are androgen-sensitive human prostate adenocarcinoma cells. […] The proliferation of the LNCap cells was monitored for 220 hours.
The test system of data set [13] is LU2514 SCLC patient derived xenograft. Nature of the data set: Efficacy in LU2514 HuPrime SCLC PDX model. It is filed as in vivo, female BALB/c nude mice. The method, then:
Tumor growth inhibition analysis was performed on Day 28 post treatment, the last day of dosing.

Another data set has as its target CYP2D6 (Homo sapiens (Human), UniProt P10635). Put plainly: CYP inhibition in pooled human liver microsomes, CYP2D6. It is filed as in vitro ADME. As to conditions: up to 50 μM. For orientation: Microsomes from liver hold many membrane-bound enzymes, among them those of drug oxidation.
Data set [14] can be described thus: 4-week toxicity study with 4-week recovery in mice (incl. toxicokinetics). Conditions: QDx5/week schedule.
Data set [15] can be described thus: Metabolism in cryopreserved primary hepatocytes. It is filed as in vitro ADME, mouse, rat, dog, monkey, human.
A short description of data set [16]: Pharmacokinetics after IV and oral dose, rats. It is filed as in vivo, Sprague Dawley rats. As to conditions: IV dosing, rats (greater than liver blood flow).
The test system of data set [17] is gene expression in MS-1 cells. Nature of the data set: Modulation of gene expression by RNA-seq, MS-1 cells. The format is cell-based, human. Conditions: 10 and 100 nM, 3 days. The method, then: (§3) Libraries were sequenced on an Illumina NextSeq® 500 System (Illumina, San Diego, Calif.) using 75 base paired-end RNA sequencing. Sequenced reads were mapped to the hg19 human genome build and differential expression was determined by analysis of variance across all replicates relative to the vehicle control.
(§4) Sequenced reads were mapped to the hg19 human genome build using the Spliced Transcripts Alignment to a Reference (STAR) software tool (©Alexander Dobin, 2009-2016) and transcript counts were normalized using the Empirical Analysis of Digital Gene Expression Data in R (edgeR) and Differential gene expression analysis based on the negative binomial distribution (DESeq2) software tools ((Bioconductor, 2003-2017). Differential expression was determined by analysis of variance across all replicates relative to the vehicle control.

Data set [18] concerns LU2527 lung NEC patient-derived xenograft. It is filed as in vivo. Conditions: 1.5 and 5 mg/kg orally QD.
The next data set deals with CYP2C9 (Homo sapiens (Human), UniProt P11712). Put plainly: CYP inhibition in pooled human liver microsomes, CYP2C9. It is filed as in vitro ADME. Conditions: up to 50 μM.
CYP2C9, sequence (P11712 whole entry): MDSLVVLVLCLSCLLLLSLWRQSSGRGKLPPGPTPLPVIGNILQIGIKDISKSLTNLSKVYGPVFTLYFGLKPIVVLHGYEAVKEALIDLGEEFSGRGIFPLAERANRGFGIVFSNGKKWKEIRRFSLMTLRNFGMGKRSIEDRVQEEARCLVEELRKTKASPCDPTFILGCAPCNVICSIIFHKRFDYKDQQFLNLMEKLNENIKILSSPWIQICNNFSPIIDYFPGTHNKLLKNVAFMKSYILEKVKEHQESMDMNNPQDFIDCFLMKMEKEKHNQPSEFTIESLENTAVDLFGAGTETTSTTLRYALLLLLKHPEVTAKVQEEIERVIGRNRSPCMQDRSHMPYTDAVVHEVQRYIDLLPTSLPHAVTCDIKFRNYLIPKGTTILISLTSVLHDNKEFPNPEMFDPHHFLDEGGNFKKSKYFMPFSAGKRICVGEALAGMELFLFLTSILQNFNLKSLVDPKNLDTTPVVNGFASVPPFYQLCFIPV
Data set [19] concerns GA0087 gastric NEC patient-derived xenograft. It is filed as in vivo. As to conditions: 1.5 and 5 mg/kg orally QD.
A short description of data set [20]: Predicted human pharmacokinetics (allometric scaling).
Data set [21] has as its system ST18 and FREM2 gene expression in MKL-1 tumors. Nature of the data set: In vivo xenograft dose-response of PD biomarker genes, MKL-1 tumors. More on the design: species or system female NSG mice. As to conditions: 1, 2.5, or 5 mg/kg PO BID x4.5, tumors 4 hours after last dose.
Excerpt: as §1, §2

For data set [22], the system named is gene expression in MKL-1 cells. Put plainly: Modulation of gene expression by RNA-seq, MKL-1 cells. The format is cell-based, human. Conditions: 10 and 100 nM, 3 days. As to the method:
as §3, §4

Data set [23] has as its system LU1480 SCLC patient derived xenograft. Put plainly: Efficacy in LU1480 HuPrime SCLC PDX model. The format is in vivo, female BALB/c nude mice.

Like-named read-outs stand apart in the source and are kept apart here.

CYP2D6, sequence (P10635 whole entry): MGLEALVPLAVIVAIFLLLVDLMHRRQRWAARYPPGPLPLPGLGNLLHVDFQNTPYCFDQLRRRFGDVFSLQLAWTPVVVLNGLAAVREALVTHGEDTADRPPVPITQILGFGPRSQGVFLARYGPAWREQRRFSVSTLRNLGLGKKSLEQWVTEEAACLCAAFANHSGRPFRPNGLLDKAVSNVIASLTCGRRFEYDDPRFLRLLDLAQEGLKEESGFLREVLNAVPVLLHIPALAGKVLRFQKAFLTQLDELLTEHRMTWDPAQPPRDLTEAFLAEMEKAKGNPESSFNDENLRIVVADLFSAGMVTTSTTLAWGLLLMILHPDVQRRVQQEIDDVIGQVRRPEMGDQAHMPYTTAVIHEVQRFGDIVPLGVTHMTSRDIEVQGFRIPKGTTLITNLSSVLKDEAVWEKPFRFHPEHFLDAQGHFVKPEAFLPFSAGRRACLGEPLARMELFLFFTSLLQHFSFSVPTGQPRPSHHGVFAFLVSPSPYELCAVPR

For `COc1cc([C@@H]2c3cc4c(cc3[C@@H](O[C@@H]3O[C@@H]5CO[C@@H](C)O[C@H]5[C@H](O)[C@H]3O)[C@H]3COC(=O)[C@H]23)OCO4)cc(OC)c1O` [Etoposide, etoposide], the “median TTE” value in data set [1] (Etoposide at 24 mg/kg/day SC days 1-3 + Vehicle PO days 4-133) was 63 days. Moreover, in data set [1] (Etoposide at 24 mg/kg/day SC days 1-3 + Vehicle), the “SS (number of study survivors)” value was found to be 0. Further, in the data set with NCI-H1417 SCLC xenograft [2], the “% TGD” value turned out to be 92%, the TGD is 24 days and the “median TTE” value is given as 50 days.

One may read the NOAEL as the highest dose or exposure tested at which no adverse effect was seen. As for `COc1ccc(-c2c(-c3ccc(C#N)c(F)c3)nc(N3CCC(N)CC3)n(C)c2=O)cc1F` [Compound A, 4-[2-(4-amino-piperidin-1-yl)-5-(3-fluoro-4-methoxy-phenyl)-1-methyl-6-oxo-1,6-dihydro-pyrimidin-4-yl]-2-fluoro-benzonitrile], the “Median Tumor Volumes (mm^3) Day 0” value in the data set on NCI-H1417 SCLC xenograft [3] (2.5 mg base/kg PO QDx65) worked out at 109.2 mm^3; in the data set with NCI-H1417 SCLC xenograft [3] (5 mg base/kg PO QDx65) it was 108.2 mm^3. In addition, the “mean body weight gain by end of study” value with NCI-H1417 SCLC xenograft [3] (2.5 mg base/kg PO QDx65) came out at 1%; in the data set on NCI-H1417 SCLC xenograft [3] (5 mg base/kg PO QDx65), 7.5%. Besides, the “mean body weight losses” value was at most 3% in [4] and under 10% in [13] (both studies with LU2514 model). Further, the “enzyme responsible for oxidative metabolism” value in data set [5] is “CYP3A4 appears to be predominantly responsible”. In addition, the “SS (number of study survivors)” value in data set [1] (Compound A at 5 mg/kg/day PO) worked out at 7. Further, the “MTV of study survivors on Day 133” value in [1] (Compound A monotherapy 5 mg/kg PO daily) is listed as 1064 mm3. For the same compound, the “study survivors on Day 133” value in data set [1] (Compound A monotherapy 5 mg/kg PO daily, n=8) was “seven”. In addition, the “animals with moribund euthanasia” value in data set [6] (0.375 to 1.5 mg base/kg/dose QW, study Days 13 to 23) is reported as 11 animals. In addition, in data set [6] (QW), the “NOEL for CV and respiratory changes” value is reported as 0.75 mg base/kg/dose. Besides, the “change in ST18 and FREM2 gene expression” value in data set [7] and in [21] was at least 2 fold in each case. For the same compound, the “maximum increase of QTcB interval versus time-matched vehicle” value in [8] (10 mg base/kg IV) is “approximately 9%”; in [8] (15 mg base/kg IV), about 13%; in [8] (20 mg base/kg IV), about 16%. The “maximum suppression of HR versus vehicle” value in data set [8] (20 mg base/kg IV, 9 minutes into 10-minute infusion) stood at 19%. In addition, the “effect on MAP or its components” value in data set [8] (5 to 20 mg base/kg IV versus time-matched vehicle) is on record as “No notable effect”. In data set [9], the “dose excreted intact (urine plus bile)” value is given as 26.3 % of the dose. Further, the “dose excreted intact in urine” value in data set [9] is listed as 8.5 % of dose. The “body weight loss of female sacrificed moribund” value in data set [10] is 10.8%. Besides, the “increase in platelets on Day 8” value in [11] (10 mg/kg/day 5 days on/2 days off, after 2-day dosing holiday) was over 2 fold. Further, the “reduction in neutrophil counts versus concurrent controls” value in [11] (females) is 66%; in [11] (males) it was 83%. Also, the “greatest reduction in neutrophil counts versus concurrent controls and pre-study values” in data set [11] (5 days on/2 days off schedule) was “approximately 90%”. The permeability in data set [12] was determined as 16.5 ×10⁻⁶ cm/s. Further, in the data set on LNCaP cells, the LNCaP cell proliferation entry is listed as “significantly inhibits LNCaP cell proliferation”. Further, the “Median Tumor Volumes (mm^3) Day 1” value was found to be 173.2 mm^3 in data set [13] (5 mg base/kg PO QDx28), 173.7 mm^3 in [13] (10 mg base/kg PO QDx28), 89.5 mm^3 in data set [23] (5 mg base/kg PO QDx21) and 87.1 mm^3 in data set [23] (10 mg base/kg PO QDx21). For the same compound, the “direct inhibitory effect on CYP2D6” value on CYP2D6 is “little to no direct inhibitory effect”. Moreover, the NOAEL in [14] worked out at 5 mg base/kg/dose. This compound registered an STD10 in [14] of over 45 mg base/kg/dose. Moreover, the metabolic stability result in data set [15] is “greater in rat and dog followed by human and monkeys while being least stable in mouse hepatocytes”. Further, the systemic clearance entry in [16] is reported as “high”. Moreover, the “ST18 and FREM2 gene expression changes (upregulated)” value in data set [17] and in [22] was “at least 2 fold” in each case. The tolerability result in data set [18] and in data set [19] was “acceptably tolerated” in each case. The “direct inhibitory effect on CYP2C9” value on CYP2C9 was “little to no direct inhibitory effect”. Besides, the predicted clearance in [20] was 9.4 mL/min/kg.
